Experimental data: ChEMBL document CHEMBL1138145, “Enhanced FTase activity achieved via piperazine interaction with catalytic zinc” (Bioorg Med Chem Lett, 2006)

What was measured:
[1] = biological target: T1, Protein farnesyltransferase (Homo sapiens, UniProt P49354+P49356); experiment: Inhibition of farnesyltransferase activity at 0.2 uM; assay type: protein-complex assay
[2] = biological target: T1, Protein farnesyltransferase; experiment: Inhibition of farnesyltransferase activity; assay type: protein-complex assay
[3] = biological target: T1, Protein farnesyltransferase; experiment: Inhibition of farnesyltransferase activity in COS7 cells transfected with Ras gene in soft agar proliferation; assay type: functional, cell-based, Chlorocebus aethiops, COS-7
[4] = AUC in rat at 10 mg/kg, po; assay type: ADME, organism-based; set-up: dose 10 mg/kg, route oral; conditions: plasma

inhibition [1] [%] | IC50 [2] [µM] | IC50 [3] [µM] | AUC [4] [µM·h] | Compound
29 |  |  |  | CS(=O)(=O)N1CCC([C@H]2c3ccc(Cl)cc3C(N3CCNCC3)=Cc3cccnc32)CC1
 | 0.076 |  |  | CS(=O)(=O)N1CCC([C@@H]2c3ccc(Cl)cc3C=C(N3CCNCC3)c3cccnc32)CC1
 | 0.15 |  |  | CS(=O)(=O)N1CCC([C@H]2c3ccc(Cl)cc3C=C(N3CCNCC3)c3cccnc32)CC1
 | 0.007 | 0.072 | 4 | CS(=O)(=O)N1CCC([C@@H]2c3ccc(Cl)cc3C(N3CCNCC3)=Cc3cccnc32)CC1
